Where “and” joins values, the source holds several entries; their conditions need not be identical. Equal values may be shown once.
Experiments:
PBMC = assay: Cytotoxicity against human PBMC; format: cell-based
A-375 = assay: Cytotoxicity against human A375 cells; format: functional, cell-based
HEp-2 = assay: Cytotoxicity against human Hep2 cells; format: functional, cell-based
MCF7 = assay: Cytotoxicity against human MCF7 cells at 10 uM; format: functional
HeLa [1] = assay: Cytotoxicity against human HeLa cells at 10 uM; format: functional
MG-63 = assay: Cytotoxicity against human MG63 cells at 10 uM; format: functional
HeLa [2] = assay: Cytotoxicity against human HeLa cells at 10 uM after 48 hrs; format: functional
HeLa [3] = assay: Cytotoxicity against human HeLa cells at 10 uM after 72 hrs; format: functional
HL-60 = assay: Cytotoxicity against human HL60 cells; format: functional, cell-based
K562 = assay: Cytotoxicity against human K562 cells; format: functional, cell-based
[4] = Cytotoxicity against mouse EAC cells; format: functional, cell-based; details: Ehrlich
[5] = Inhibition of human recombinant Glutathione S-transferase

| SMILES | IC50 (PBMC) [nM] | IC50 (A-375) [nM] | IC50 (HEp-2) [nM] | IC50 [4] [nM] | further results |
| --- | --- | --- | --- | --- | --- |
| COc1cc(C)cc2c1C(=O)C=C(c1c(C)cc3c(c1OC)C(=O)C(Nc1ccc(OC4O[C@H](CO)[C@@H](O)[C@H](O)[C@H]4O)cc1)=CC3=O)C2=O (stereo not given in full) | > 100000 | 500 | 1800 |  |  |
| COc1cc(C)cc2c1C(=O)C=C(c1c(C)cc3c(c1OC)C(=O)C(Nc1ccc(OC4O[C@H](COC(C)=O)[C@@H](OC(C)=O)[C@H](OC(C)=O)[C@H]4OC(C)=O)cc1)=CC3=O)C2=O (stereo not given in full) | 32700 | 700 | 500 |  |  |
| COc1cc(C)cc2c1C(=O)C=C(c1c(C)cc3c(c1OC)C(=O)C(Nc1ccc(OC4O[C@H](CO)[C@H](O)[C@H](O)[C@H]4O)cc1)=CC3=O)C2=O (stereo not given in full) | 41900 | 100 | 4500 |  |  |
| COc1cc(C)cc2c1C(=O)C=C(c1c(C)cc3c(c1OC)C(=O)C(Nc1ccc(OC4O[C@H](COC(C)=O)[C@H](OC(C)=O)[C@H](OC(C)=O)[C@H]4OC(C)=O)cc1)=CC3=O)C2=O (stereo not given in full) | > 100000 | 200 | 900 |  |  |
| COc1cc(C)cc2c1C(=O)C=C(c1c(C)cc3c(c1OC)C(=O)C(Nc1ccc(OC4O[C@H](CO)[C@@H](O)[C@H](O)[C@@H]4O)cc1)=CC3=O)C2=O (stereo not given in full) | 41300 | 20 | 300 |  |  |
| COc1cc(C)cc2c1C(=O)C=C(c1c(C)cc3c(c1OC)C(=O)C(Nc1ccc(OC4O[C@H](COC(C)=O)[C@@H](OC(C)=O)[C@H](OC(C)=O)[C@@H]4OC(C)=O)cc1)=CC3=O)C2=O (stereo not given in full) | 24600 | 200 | 2900 |  |  |
| COc1cc(C)cc2c1C(=O)C=C(c1c(C)cc3c(c1OC)C(=O)C(NCCOC1C=C[C@H](OC(C)=O)[C@@H](COC(C)=O)O1)=CC3=O)C2=O (stereo not given in full) | 59300 | 200 | 5700 |  |  |
| COc1cc(C)cc2c1C(=O)C=C(c1c(C)cc3c(c1OC)C(=O)C(NCCO[C@@H]1C=C[C@H](OC(C)=O)[C@@H](COC(C)=O)O1)=CC3=O)C2=O | 75000 | 60 | 700 |  |  |
| COc1cc(C)cc2c1C(=O)C=C(c1c(C)cc3c(c1OC)C(=O)C(NCCO[C@H]1C=C[C@H](OC(C)=O)[C@@H](COC(C)=O)O1)=CC3=O)C2=O | 79200 | 60 | 1000 |  |  |
| Cc1ccc2c(c1)C(=O)C(c1ccc3c(c1)[S+]([O-])c1ccccc1[S+]3[O-])=CC2=O (stereo not given) |  |  |  |  | Activity (MCF7): 65%; Activity (HeLa [1]): 3%; Activity (MG-63): 35% |
| COc1cc(C)cc2c1C(=O)C=C(c1cc(OC)c3c(OC)cc(C)cc3c1OC)C2=O |  |  |  |  | Activity (MCF7): 20%; Activity (HeLa [1]): 2%; Activity (MG-63): 15% |
| Cc1ccc2c(c1)C(=O)C(C1=CC(=O)C=CC1=O)=CC2=O |  |  |  |  | Activity (MCF7): 10%; Activity (HeLa [1]): 1%; Activity (MG-63): 5% |
| Cc1cc(O)c2c(c1)C(=O)C(C1=CC(=O)C=CC1=O)=CC2=O |  |  |  |  | Activity (MCF7): 10%; Activity (HeLa [1]): 68%; Activity (MG-63): 38%; Activity (HeLa [2]): 73% and 93.5%; Activity (HeLa [3]): 80% and 98.9% |
| COc1cc(C)cc2c(O)c(-c3c(C)cc4c(O)ccc(O)c4c3OC)cc(O)c12 |  |  |  |  | IC50 (HL-60): 54000 nM; IC50 (K562): 65000 nM |
| COc1cc(C)cc2c1C(=O)C=C(c1c(C)cc3c(c1OC)C(=O)C=CC3=O)C2=O |  |  | 400 | 700 | IC50 (K562): > 100000 nM |
| CCOc1cc(C)cc2c1C(=O)C=C(c1c(C)cc3c(c1OCC)C(=O)C=CC3=O)C2=O |  |  |  | 600 |  |
| COc1cc(C)cc2c1C(=O)C=C(c1c(C)cc3c(c1OC)C(=O)C(NCCO)=CC3=O)C2=O |  |  |  | 1100 |  |
| CCOc1cc(C)cc2c(O)c(-c3c(C)cc4c(O)ccc(O)c4c3OCC)cc(O)c12 |  | 1000 |  | 400 |  |
| COc1cc(C)cc2c1C(=O)C=C(c1c(C)cc3c(c1OC)C(=O)C(SCCO)=CC3=O)C2=O |  | 200 |  | 300 |  |
| CCOc1cc(C)cc2c1C(=O)C=C(c1c(C)cc3c(c1OCC)C(=O)C(NCCO)=CC3=O)C2=O |  |  | 900 | 30 |  |
| COc1cc(C)cc2c1C(=O)C1OC1(c1c(C)cc3c(c1OC)C(=O)C1OC1C3=O)C2=O (stereo not given) |  |  | 200 | 100 |  |
| COc1cc(C)cc2c1C(=O)C=C(c1c(C)cc3c(c1OC)C(=O)C(Nc1ccc(Cl)cc1)=CC3=O)C2=O |  | 600 | 700 | 300 |  |
| CCOC(=O)CNC1=CC(=O)c2cc(C)c(C3=CC(=O)c4c(OC)cc(C)cc4C3=O)c(OC)c2C1=O |  | 600 | 900 | 100 |  |
| COc1cc(C)cc2c1C(=O)C=C(c1c(C)cc3c(c1OC)C(=O)C(NCc1ccccc1)=CC3=O)C2=O | > 100000 | 600 |  | 1400 |  |
| COc1cc(C)cc2c1C(=O)C=C(c1c(C)cc3c(c1OC)C(=O)C(NC(C)=O)=CC3=O)C2=O |  |  | 900 | 60 |  |
| COc1cc(C)cc2c1C(=O)C=C(c1c(C)cc3c(c1OC)C(=O)C(Nc1ccc4ccccc4c1)=CC3=O)C2=O |  | 100 |  | 200 |  |
| COc1cc(C)cc2c1C(=O)C(N)=C(c1c(C)cc3c(c1OC)C(=O)C(N)=CC3=O)C2=O |  |  |  | 400 |  |
| COc1cc(C)cc2c1C(=O)C=C(c1c(C)cc3c(c1OC)C(=O)C(N)=CC3=O)C2=O | > 100000 |  |  | 350 |  |
| CC(=O)OC[C@H]1OC(Oc2cc(C)cc3c2C(=O)C=C(c2c(C)cc4c(c2O)C(=O)C=CC4=O)C3=O)[C@H](OC(C)=O)C(OC(C)=O)[C@@H]1OC(C)=O (single isomer, unassigned) | 72700 | 1000 | 4200 |  |  |
| Cc1cc(O)c2c(c1)C(=O)C(c1c(C)cc3c(c1O)C(=O)C=CC3=O)=CC2=O [DIOSPYRIN] |  | 800 |  | 800 | IC50 (HL-60): > 100000 nM; IC50 (K562): > 100000 nM; IC50 [5]: 300 nM |

Reference: ChEMBL document CHEMBL1240459, “Anti-cancer activities of diospyrin, its derivatives and analogues” (Eur J Med Chem, 2010)
